Results taken from PubChem BioAssay AID316 (DTP/NCI, 2004).
Where “and” joins values, the source holds several entries; their conditions need not be identical. Equal entries are not always repeated. Inconclusive results and toxic doses are left out. The calls were made as follows: active = survival T/C of 150% or more; inactive = T/C below 125% in these data.

Test system: P1534 leukemia ip, CD2F1 mice, survival T/C
Test: NCI In Vivo Anticancer Drug Screen. Data for tumor model P1534 Leukemia (intraperitoneal) in CD2F1 (CDF1) mice
Details: endpoint: mean survival time, higher = longer survival
Experimental: The antitumor activity of compounds was measured in mice bearing transplantable tumors. Survival or tumor size were measured and the results are expressed as the measurement made in the treated group (T) divided by the measurement made in the vehicle treated control group (C). The tumor model used in this assay is P1534 Leukemia (intraperitoneal) in CD2F1 (CDF1) mice

[1] = dose: 31.3 mg/kg/injection, schedule: Q01DX010 (ip), vehicle: saline
[2] = dose: 12.5 mg/kg/injection, schedule: Q01DX010 (ip), vehicle: saline
[3] = dose: 25.0 mg/kg/injection, schedule: Q01DX010 (ip), vehicle: saline
[4] = dose: 50.0 mg/kg/injection, schedule: Q01DX010 (ip), vehicle: saline
[5] = dose: 100.0 mg/kg/injection, schedule: Q01DX010 (ip), vehicle: saline

Measured: T/C

CC(=O)NC1=C(N2CC2)C(=O)C(NC(C)=O)=C(N2CC2)C1=O
inactive: dose: 31.3 micrograms/kg/injection, schedule: Q01DX010 (ip), vehicle: saline 107 % of control | dose: 62.5 micrograms/kg/injection, schedule: Q01DX010 (ip), vehicle: saline 110 % of control

CCCCNc1ncnc2c1cnn2C
inactive: [1] 100 % of control | dose: 62.5 mg/kg/injection, schedule: Q01DX010 (ip), vehicle: saline 88 % of control and 100 % of control

OC(CBr)C(O)C(O)C(O)CBr (stereo not drawn)
inactive: [2] 103 % of control | [3] 103 % of control | [4] 103 % of control | [5] 103 % of control

CCn1cnc2c(=S)nc[nH]c21
inactive: [1] 114 % of control

CCCNc1ncnc2[nH]ncc12
inactive: dose: 3.13 mg/kg/injection, schedule: Q01DX010 (ip), vehicle: saline 100 % of control | dose: 6.25 mg/kg/injection, schedule: Q01DX010 (ip), vehicle: saline 88 % of control and 100 % of control | [2] 111 % of control and 100 % of control | [3] 94 % of control and 100 % of control

O=C(O)CCCc1ccc(N(CCCl)CCCl)cc1
inactive: dose: 6.25 mg/kg/injection, schedule: Q01DX010 (ip), vehicle: other 114 % of control | dose: 25.0 mg/kg/injection, schedule: Q01DX010 (ip), vehicle: other 103 % of control

CO[C@@H]1[C@@H](OC2OC(C)C(OC3CC(C)(O)C(OC(=O)CC(C)C)C(C)O3)C(N(C)C)C2O)[C@@H](CC=O)C[C@@H](C)C(=O)/C=C/C2O[C@H]2C[C@@H](C)OC(=O)C[C@H]1OC(C)=O (stereo partly drawn)
inactive: dose: 50.0 mg/kg/injection, schedule: Q#A X020 (ip), vehicle: water 96 % of control | dose: 100.0 mg/kg/injection, schedule: Q01DX010 (ip), vehicle: water 92 % of control | dose: 100.0 mg/kg/injection, schedule: Q#A X020 (ip), vehicle: water 107 % of control and 109 % of control | dose: 125.0 mg/kg/injection, schedule: Q#A X020 (ip), vehicle: water 113 % of control | dose: 150.0 mg/kg/injection, schedule: Q#A X020 (ip), vehicle: water 115 % of control | dose: 175.0 mg/kg/injection, schedule: Q#A X020 (ip), vehicle: water 116 % of control | dose: 200.0 mg/kg/injection, schedule: Q01DX010 (ip), vehicle: water 110 % of control | dose: 250.0 mg/kg/injection, schedule: Q01DX010 (ip), vehicle: water 121 % of control | dose: 300.0 mg/kg/injection, schedule: Q01DX010 (ip), vehicle: water 104 % of control | dose: 1000.0 mg/kg/injection, schedule: Q01DX010 (oral), vehicle: water 119 % of control

C=C1c2[nH]c3ccccc3c2CN2CCC1/C(=C/C)C2 (stereo not drawn)
inactive: dose: 0.13 mg/kg/injection, schedule: Q01DX010 (ip), vehicle: saline 96 % of control | dose: 0.25 mg/kg/injection, schedule: Q01DX010 (ip), vehicle: saline 93 % of control | dose: 0.5 mg/kg/injection, schedule: Q01DX010 (ip), vehicle: saline 96 % of control | dose: 1.0 mg/kg/injection, schedule: Q01DX010 (ip), vehicle: saline 100 % of control

COC(=O)C1=COC(C)C2CN3CCc4c([nH]c5cc(OC)c(OC)cc45)C3CC12 (stereo not drawn)
inactive: [4] 96 % of control | [5] 100 % of control | dose: 200.0 mg/kg/injection, schedule: Q01DX010 (ip), vehicle: saline 100 % of control

NCCCC(=O)NCCCCCCCCCCNC(=O)CCCN
inactive: [2] 96 % of control | [3] 93 % of control | [4] 96 % of control | [5] 103 % of control

C[C@@H]1CCC([C@@H](C)[C@H]2CC[C@H]3[C@@H]4CC[C@H]5C[C@@H](O)CC[C@]5(C)[C@H]4CC[C@]23C)=NC1
inactive: [2] 107 % of control | [3] 103 % of control | [4] 100 % of control | [5] 100 % of control

CCC(C)n1ncc2c(N(C)C)ncnc21 (stereo not drawn)
inactive: dose: 16.25 mg/kg/injection, schedule: Q01DX010 (ip), vehicle: saline 107 % of control | dose: 32.5 mg/kg/injection, schedule: Q01DX010 (ip), vehicle: saline 111 % of control | dose: 65.0 mg/kg/injection, schedule: Q01DX010 (ip), vehicle: saline 96 % of control

NNC(=O)c1cnccn1
inactive: dose: 40.0 mg/kg/injection, schedule: Q01DX010 (ip), vehicle: water 121 % of control | dose: 80.0 mg/kg/injection, schedule: Q01DX010 (ip), vehicle: water 110 % of control and 97 % of control

CCN(CC)CCNc1ccc(C)c2sc3ccccc3c(=O)c12
inactive: dose: 20.0 mg/kg/injection, schedule: Q01DX010 (ip), vehicle: saline 103 % of control | dose: 40.0 mg/kg/injection, schedule: Q01DX010 (ip), vehicle: saline 103 % of control | dose: 80.0 mg/kg/injection, schedule: Q01DX010 (ip), vehicle: saline 107 % of control
